Measurements as given in patent publication US6376497B1, “Antifungal azole derivatives having a fluorinated vinyl group and process for preparing same” (Korea Research Institute of Chemical Technology, priority 1999, dated 2002).
Values after ≈ are worked out from the molar mass of the structure shown.

Experiments:
Experiment in all cases: In vitro antifungal activity, microbroth dilution MIC
Assay type in all cases: cell-based
[1] = tested on: Trichophyton mentagrophytes A. 9129; settings: 4 to 48 hours; for Minimal inhibitory concentration(MIC), T. mentagrophytes A. 9129: RPMI-1640, 35° C., no growth observed; for Minimal inhibitory concentration (MIC): T. mentagrophytes A. 9129, RPMI-1640, 35° C.
In short: (§1)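 Broth microdilution adapted from NCCLS M27, in RPMI-1640 with 0.165 M MOPS, pH 7.0. Yeast or mould inoculum at 2×10^3 CFU/ml was mixed 1:1 with DMSO-derived compound solutions (200 to 0.10 μg/ml before mixing) and incubated at 35 °C for 4 to 48 h. MIC was the concentration showing no growth.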

[2] = tested on: Torulopsis glabrata B. 16205; settings: 4 to 48 hours; for Minimal inhibitory concentration(MIC), T. glabrata B. 16205: RPMI-1640, 35° C., no growth observed; for Minimal inhibitory concentration (MIC): T. glabrata B. 16205, RPMI-1640, 35° C.
In short: as §1

[3] = tested on: Cryptococcus neoformans IFM. 40092; settings: 4 to 48 hours; for Minimal inhibitory concentration(MIC), Cry. neoformans IFM. 40092: RPMI-1640, 35° C., no growth observed; for Minimal inhibitory concentration (MIC): Cry. neoformans IFM. 40092, RPMI-1640, 35° C.
In short: as §1

Candida krusei K. 11655 = settings: 4 to 48 hours; for Minimal inhibitory concentration(MIC), C. krusei K. 11655: RPMI-1640, 35° C., no growth observed; for Minimal inhibitory concentration (MIC): C. krusei K. 11655, RPMI-1640, 35° C.
In short: as §1

Candida albicans C1-2 = settings: 4 to 48 hours; for Minimal inhibitory concentration(MIC), C. albicans C1-2: RPMI-1640, 35° C., no growth observed; for Minimal inhibitory concentration (MIC): C. albicans C1-2, RPMI-1640, 35° C.
In short: as §1

[4] = tested on: Candida tropicalis A. 13803; settings: 4 to 48 hours; for Minimal inhibitory concentration(MIC), C. tropicalis A. 13803: RPMI-1640, 35° C., no growth observed; for Minimal inhibitory concentration (MIC): C. tropicalis A. 13803, RPMI-1640, 35° C.
In short: as §1

[5] = tested on: Candida albicans IFO. 1385; settings: 4 to 48 hours; for Minimal inhibitory concentration(MIC), C. albicans IFO. 1385: RPMI-1640, 35° C., no growth observed; for Minimal inhibitory concentration (MIC): C. albicans IFO. 1385, RPMI-1640, 35° C.
In short: as §1

[6] = tested on: Aspergillus niger A. 16404; settings: 4 to 48 hours; for Minimal inhibitory concentration(MIC), A. niger A. 16404: RPMI-1640, 35° C., no growth observed; for Minimal inhibitory concentration (MIC): A. niger A. 16404, RPMI-1640, 35° C.
In short: as §1

[7] = tested on: Cryptococcus neoformans B. 42419; settings: 4 to 48 hours; for Minimal inhibitory concentration(MIC), Cry. neoformans B. 42419: RPMI-1640, 35° C., no growth observed; for Minimal inhibitory concentration (MIC): Cry. neoformans B. 42419, RPMI-1640, 35° C.
In short: as §1

[8] = tested on: Trichophyton mentagrophytes B. 32663; settings: 4 to 48 hours; for Minimal inhibitory concentration(MIC), T. mentagrophytes B. 32663: RPMI-1640, 35° C., no growth observed; for Minimal inhibitory concentration (MIC): T. mentagrophytes B. 32663, RPMI-1640, 35° C.
In short: as §1

[9] = tested on: Cryptococcus neoformans A. 34144; settings: 4 to 48 hours; for Minimal inhibitory concentration(MIC), Cry. neoformans A. 34144: RPMI-1640, 35° C., no growth observed; for Minimal inhibitory concentration (MIC): Cry. neoformans A. 34144, RPMI-1640, 35° C.
In short: as §1

[10] = tested on: Aspergillus furnigatus B. 19119; settings: 4 to 48 hours; for Minimal inhibitory concentration(MIC), A furnigatus B. 19119: RPMI-1640, 35° C., no growth observed; for Minimal inhibitory concentration (MIC): A furnigatus B. 19119, RPMI-1640, 35° C.
In short: as §1

[11] = tested on: Candida pseudotropicalis K. 11658; settings: 4 to 48 hours; for Minimal inhibitory concentration(MIC), C. pseudotropicalis K. 11658: RPMI-1640, 35° C., no growth observed; for Minimal inhibitory concentration (MIC): C. pseudotropicalis K. 11658, RPMI-1640, 35° C.
In short: as §1

[12] = tested on: Candida albicans A. 10231; settings: 4 to 48 hours; for Minimal inhibitory concentration(MIC), C. albicans A. 10231: RPMI-1640, 35° C., no growth observed; for Minimal inhibitory concentration (MIC): C. albicans A. 10231, RPMI-1640, 35° C.
In short: as §1

[13] = tested on: Candida parapsitosis A. 7330; settings: 4 to 48 hours; for Minimal inhibitory concentration(MIC), C. parapsitosis A. 7330: RPMI-1640, 35° C., no growth observed; for Minimal inhibitory concentration (MIC): C. parapsitosis A. 7330, RPMI-1640, 35° C.
In short: as §1

Row | Compound | Minimal inhibitory concentration(MIC), T. mentagrophytes A. 9129 [1] [µg/mL] | Minimal inhibitory concentration(MIC), T. glabrata B. 16205 [2] [µg/mL] | Minimal inhibitory concentration(MIC), Cry. neoformans IFM. 40092 [3] [µg/mL] | Minimal inhibitory concentration(MIC), C. krusei K. 11655 (Candida krusei K. 11655) [µg/mL] | Minimal inhibitory concentration(MIC), C. albicans C1-2 (Candida albicans C1-2) [µg/mL] | Minimal inhibitory concentration (MIC) [1] [µg/mL] | Minimal inhibitory concentration (MIC) [2] [µg/mL] | Minimal inhibitory concentration (MIC) [3] | Minimal inhibitory concentration (MIC) (Candida krusei K. 11655) [µg/mL] | Minimal inhibitory concentration (MIC) (Candida albicans C1-2) [µg/mL] | Minimal inhibitory concentration (MIC) [4] [µg/mL] | Minimal inhibitory concentration (MIC) [5] [µg/mL] | Minimal inhibitory concentration (MIC) [6] [µg/mL] | Minimal inhibitory concentration (MIC) [7] [µg/mL] | Minimal inhibitory concentration (MIC) [8] | Minimal inhibitory concentration (MIC) [9] [µg/mL] | Minimal inhibitory concentration (MIC) [10] [µg/mL] | Minimal inhibitory concentration (MIC) [11] [µg/mL] | Minimal inhibitory concentration (MIC) [12] [µg/mL] | Minimal inhibitory concentration (MIC) [13] [µg/mL] | other results
1 | FC(=C(c1cccc(Cl)c1)C(F)(F)F)N1CCN(c2ccc(OCC3COC(Cn4ccnc4)(c4ccc(Cl)cc4Cl)O3)cc2)CC1 (mixture of isomers) [Ex. 133] | 6.25 | >100 | 0.20 | 1.56 | >100 |  |  |  |  |  |  |  |  |  |  |  |  |  |  |  | Minimal inhibitory concentration(MIC), C. tropicalis A. 13803 [4]: >100 µg/mL; Minimal inhibitory concentration(MIC), C. albicans IFO. 1385 [5]: 3.13 µg/mL; Minimal inhibitory concentration(MIC), A. niger A. 16404 [6]: >100 µg/mL; Minimal inhibitory concentration(MIC), Cry. neoformans B. 42419 [7]: 0.39 µg/mL; Minimal inhibitory concentration(MIC), T. mentagrophytes B. 32663 [8]: 1.56 µg/mL; Minimal inhibitory concentration(MIC), Cry. neoformans A. 34144 [9]: 0.78 µg/mL; Minimal inhibitory concentration(MIC), A furnigatus B. 19119 [10]: >100 µg/mL; Minimal inhibitory concentration(MIC), C. pseudotropicalis K. 11658 [11]: 1.56 µg/mL; Minimal inhibitory concentration(MIC), C. albicans A. 10231 [12]: >100 µg/mL; Minimal inhibitory concentration(MIC), C. parapsitosis A. 7330 [13]: 3.13 µg/mL
2 | CCc1ccc(C=C(F)OCC2COC(Cn3ccnc3)(c3ccc(Cl)cc3Cl)O2)cc1 (stereo not drawn) [Ex. 4] |  |  |  |  |  | 3.13 (≈ 6.56 µM) | 6.25 (≈ 13.1 µM) | 1.56 µg/mL (≈ 3.27 µM) | 6.25 (≈ 13.1 µM) | 6.25 (≈ 13.1 µM) | 12.5 (≈ 26.2 µM) | 1.56 (≈ 3.27 µM) | 6.25 (≈ 13.1 µM) | 3.13 (≈ 6.56 µM) | 1.56 µg/mL (≈ 3.27 µM) | 3.13 (≈ 6.56 µM) | 6.25 (≈ 13.1 µM) | 6.25 (≈ 13.1 µM) | 12.5 (≈ 26.2 µM) | 12.5 (≈ 26.2 µM) | 
3 | FC(=Cc1cccc(F)c1)OCC1COC(Cn2ccnc2)(c2ccc(F)cc2F)O1 (mixture of isomers) [Ex. 48] |  |  |  |  |  | 0.39 | 12.5 | ≦0.10 μg/ml | 25.0 | 25.0 | 50.0 | 0.20 | 6.25 | 0.78 | ≦0.10 μg/ml | 0.78 | 1.56 | 12.5 | 25.0 | 25.0 | 
4 | Cc1ccc(C(=C(F)OCC2COC(Cn3ccnc3)(c3ccc(F)cc3F)O2)C(F)(F)F)cc1C (mixture of isomers) [Ex. 56] |  |  |  |  |  | 6.25 | 6.25 | 0.20 µg/mL | >100 | 12.5 | 100 | 0.78 | >100 | 0.78 | 3.13 µg/mL | 1.56 | 50.0 | >100 | 12.5 | >100 | 
5 | FC(Oc1ccc(OCC2COC(Cn3cncn3)(c3ccc(Cl)cc3Cl)O2)cc1)=C(c1ccc(Cl)cc1)C(F)(F)F (mixture of isomers) [Ex. 122] | 6.25 | 12.5 | 0.20 | 12.5 | 6.25 |  |  |  |  |  |  |  |  |  |  |  |  |  |  |  | Minimal inhibitory concentration(MIC), C. tropicalis A. 13803 [4]: 25.0 µg/mL; Minimal inhibitory concentration(MIC), C. albicans IFO. 1385 [5]: 0.78 µg/mL; Minimal inhibitory concentration(MIC), A. niger A. 16404 [6]: 100 µg/mL; Minimal inhibitory concentration(MIC), Cry. neoformans B. 42419 [7]: 1.56 µg/mL; Minimal inhibitory concentration(MIC), T. mentagrophytes B. 32663 [8]: 3.13 µg/mL; Minimal inhibitory concentration(MIC), Cry. neoformans A. 34144 [9]: 0.78 µg/mL; Minimal inhibitory concentration(MIC), A furnigatus B. 19119 [10]: 12.5 µg/mL; Minimal inhibitory concentration(MIC), C. pseudotropicalis K. 11658 [11]: 6.25 µg/mL; Minimal inhibitory concentration(MIC), C. albicans A. 10231 [12]: 12.5 µg/mL; Minimal inhibitory concentration(MIC), C. parapsitosis A. 7330 [13]: 6.25 µg/mL
6 | FC(Oc1ccc(OCC2COC(Cn3ccnc3)(c3ccc(F)cc3F)O2)cc1)=C(c1cc(Cl)cc(Cl)c1)C(F)(F)F (mixture of isomers) [Ex. 116] | 6.25 | 50.0 | 0.20 | 100 | 100 |  |  |  |  |  |  |  |  |  |  |  |  |  |  |  | Minimal inhibitory concentration(MIC), C. tropicalis A. 13803 [4]: >100 µg/mL; Minimal inhibitory concentration(MIC), C. albicans IFO. 1385 [5]: 3.13 µg/mL; Minimal inhibitory concentration(MIC), A. niger A. 16404 [6]: >100 µg/mL; Minimal inhibitory concentration(MIC), Cry. neoformans B. 42419 [7]: 1.56 µg/mL; Minimal inhibitory concentration(MIC), T. mentagrophytes B. 32663 [8]: 3.13 µg/mL; Minimal inhibitory concentration(MIC), Cry. neoformans A. 34144 [9]: 1.56 µg/mL; Minimal inhibitory concentration(MIC), A furnigatus B. 19119 [10]: >100 µg/mL; Minimal inhibitory concentration(MIC), C. pseudotropicalis K. 11658 [11]: 25.0 µg/mL; Minimal inhibitory concentration(MIC), C. albicans A. 10231 [12]: 100 µg/mL; Minimal inhibitory concentration(MIC), C. parapsitosis A. 7330 [13]: 100 µg/mL
7 | (E&Z) 1-{4-[cis-2-(2,4-dichlorophenyl)-2-(1H-1-imidazolylmethyl)-1,3-dioxolan-4-ylmethoxy]-phenoxy}-1,3,3,3-tetrafluoro-2-phenyl-1-propene [Example 19] |  |  |  |  |  | 1.56 | 3.13 | 0.20 µg/mL | 50.0 | 6.25 | 25.0 | 0.78 | 3.13 | 0.78 | 0.78 µg/mL | 1.56 | 1.56 | 25.0 | 6.25 | >100 | 
